For twelve compounds, pest or weed control results are on record in patent publication US10206394B2, “Herbicidal compounds” (Syngenta Participations AG, priority 2014, dated 2019).

Read-outs that look alike come from different tables or passages of the source.

Assay in all cases: Glasshouse assay for herbicidal activity (pre- and post-emergence), percentage phytotoxicity
Common to all, as to type: in vivo

Assay [1] relates to Alopecurus myosuroides (ALOMY). Particulars: Alopecurus myosuroides. Summed up: (§1)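 Damage was rated visually as percent phytotoxicity, 100% meaning total kill, 20 days after pre-emergence application (made one day post-sowing) or 15 days after post-emergence application (made about 12 days post-sowing). Plants were grown under 16 h light, 65% humidity, warm species 24/18° C, cool 20/16° C.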

For assay [2], the system named is Echinochloa crus-galli (ECHCG). Particulars: Echinochloa crus-galli. Summed up: as §1
The subject of assay [3] is Avena fatua (AVEFA). The following applies: Avena fatua. In outline:
as §1

Assay [4] deals with Lolium perenne (LOLPE). Particulars: Lolium perenne. In outline:
as §1

Where [5] appears, read: post-emergence, 360 h, 250 g/ha, post-emergence, 15 DAA, visual assessment (100%=total damage, 0%=no damage), read-out: Post-emergence herbicidal activity (percentage phytotoxicity) ALOMY POST.
Where [6] appears, read: pre-emergence, 480 h, 250 g/ha, pre-emergence, 20 DAA, visual assessment (100%=total damage, 0%=no damage), read-out: Pre-emergence herbicidal activity (percentage phytotoxicity) ALOMY PRE.
[7] abbreviates: post-emergence, 360 h, 250 g/ha, post-emergence, 15 DAA, visual assessment (100%=total damage, 0%=no damage), read-out: Post-emergence herbicidal activity (percentage phytotoxicity) ECHCG POST.
[8] abbreviates: pre-emergence, 480 h, 250 g/ha, pre-emergence, 20 DAA, visual assessment (100%=total damage, 0%=no damage), read-out: Pre-emergence herbicidal activity (percentage phytotoxicity) ECHCG PRE.
Where [9] appears, read: post-emergence, 360 h, 250 g/ha, post-emergence, 15 DAA, visual assessment (100%=total damage, 0%=no damage), read-out: Post-emergence herbicidal activity (percentage phytotoxicity) AVEFA POST.
[10] abbreviates: pre-emergence, 480 h, 250 g/ha, pre-emergence, 20 DAA, visual assessment (100%=total damage, 0%=no damage), read-out: Pre-emergence herbicidal activity (percentage phytotoxicity) AVEFA PRE.
Setting [11] is: post-emergence, 360 h, 250 g/ha, post-emergence, 15 DAA, visual assessment (100%=total damage, 0%=no damage), read-out: Post-emergence herbicidal activity (percentage phytotoxicity) LOLPE POST.
Setting [12] is: pre-emergence, 480 h, 250 g/ha, pre-emergence, 20 DAA, visual assessment (100%=total damage, 0%=no damage), read-out: Pre-emergence herbicidal activity (percentage phytotoxicity) LOLPE PRE.
Where [13] appears, read: post-emergence, 360 h, Rate 250 g/ha, post-emergence, assessed visually 15 DAA, 100%=total damage, 0%=no damage, read-out: Post-emergence herbicidal activity (percentage phytotoxicity) ALOMY POST.
The mark [14] stands for this setting: pre-emergence, 480 h, Rate 250 g/ha, pre-emergence, assessed visually 20 DAA, 100%=total damage, 0%=no damage, read-out: Pre-emergence herbicidal activity (percentage phytotoxicity) ALOMY PRE.
Where [15] appears, read: post-emergence, 360 h, Rate 250 g/ha, post-emergence, assessed visually 15 DAA, 100%=total damage, 0%=no damage, read-out: Post-emergence herbicidal activity (percentage phytotoxicity) ECHCG POST.
[16] abbreviates: pre-emergence, 480 h, Rate 250 g/ha, pre-emergence, assessed visually 20 DAA, 100%=total damage, 0%=no damage, read-out: Pre-emergence herbicidal activity (percentage phytotoxicity) ECHCG PRE.
Where [17] appears, read: post-emergence, 360 h, Rate 250 g/ha, post-emergence, assessed visually 15 DAA, 100%=total damage, 0%=no damage, read-out: Post-emergence herbicidal activity (percentage phytotoxicity) AVEFA POST.
[18] abbreviates: pre-emergence, 480 h, Rate 250 g/ha, pre-emergence, assessed visually 20 DAA, 100%=total damage, 0%=no damage, read-out: Pre-emergence herbicidal activity (percentage phytotoxicity) AVEFA PRE.
Where [19] appears, read: post-emergence, 360 h, Rate 250 g/ha, post-emergence, assessed visually 15 DAA, 100%=total damage, 0%=no damage, read-out: Post-emergence herbicidal activity (percentage phytotoxicity) LOLPE POST.
Where [20] appears, read: pre-emergence, 480 h, Rate 250 g/ha, pre-emergence, assessed visually 20 DAA, 100%=total damage, 0%=no damage, read-out: Pre-emergence herbicidal activity (percentage phytotoxicity) LOLPE PRE.
Where [21] appears, read: post-emergence, 360 h, Rate 250 g/ha, post-emergence, visual assessment 15 DAA, 100%=total damage, 0%=no damage, read-out: Post-emergence herbicidal activity (percentage phytotoxicity) ALOMY POST.
The mark [22] stands for this setting: pre-emergence, 480 h, Rate 250 g/ha, pre-emergence, visual assessment 20 DAA, 100%=total damage, 0%=no damage, read-out: Pre-emergence herbicidal activity (percentage phytotoxicity) ALOMY PRE.
Setting [23] is: post-emergence, 360 h, Rate 250 g/ha, post-emergence, visual assessment 15 DAA, 100%=total damage, 0%=no damage, read-out: Post-emergence herbicidal activity (percentage phytotoxicity) ECHCG POST.
[24] abbreviates: pre-emergence, 480 h, Rate 250 g/ha, pre-emergence, visual assessment 20 DAA, 100%=total damage, 0%=no damage, read-out: Pre-emergence herbicidal activity (percentage phytotoxicity) ECHCG PRE.
Where [25] appears, read: post-emergence, 360 h, Rate 250 g/ha, post-emergence, visual assessment 15 DAA, 100%=total damage, 0%=no damage, read-out: Post-emergence herbicidal activity (percentage phytotoxicity) AVEFA POST.
The mark [26] stands for this setting: pre-emergence, 480 h, Rate 250 g/ha, pre-emergence, visual assessment 20 DAA, 100%=total damage, 0%=no damage, read-out: Pre-emergence herbicidal activity (percentage phytotoxicity) AVEFA PRE.
[27] abbreviates: post-emergence, 360 h, Rate 250 g/ha, post-emergence, visual assessment 15 DAA, 100%=total damage, 0%=no damage, read-out: Post-emergence herbicidal activity (percentage phytotoxicity) LOLPE POST.
Where [28] appears, read: pre-emergence, 480 h, Rate 250 g/ha, pre-emergence, visual assessment 20 DAA, 100%=total damage, 0%=no damage, read-out: Pre-emergence herbicidal activity (percentage phytotoxicity) LOLPE PRE.

In the case of `Cc1cc(C)c(C2C(=O)CC(CC(=O)NCC3CC3(Cl)Cl)C2=O)c(C)c1` (centres unmarked) [Compound B40], the pest or weed control at 250 g/ha in assay [1] (setting [5]) is 80%; in assay [1] (setting [6]) it was 90%; in assay [2] (setting [7]), 90%; in assay [2] (setting [8]) it was 90%; in assay [3] (setting [9]) it was 90%; in assay [3] (setting [10]), 70%. Further, the pest or weed control at 250 g/ha was determined as 80% in assay [4] (setting [11]) and 90% in assay [4] (setting [12]).
As for `CC#Cc1cc(C)c(C2C(=O)CC(CC(=O)NC3CCCC3)C2=O)c(C)c1` (centres unmarked) [Compound A62], the pest or weed control at 250 g/ha came to 90% in assay [1] (setting [13]); 100% in assay [1] (setting [14]); 100% in assay [2] (setting [15]); 100% in assay [2] (setting [16]); 90% in assay [3] (setting [17]); 90% in assay [3] (setting [18]). For the same compound, the pest or weed control at 250 g/ha in assay [4] (setting [19]) was 60%; in assay [4] (setting [20]), 100%.
`COCC(C)NC(=O)CC1CC(=O)C(c2c(C)cc(Br)cc2C)C1=O` (centres unmarked) [Compound B134]: the pest or weed control at 250 g/ha in assay [1] (setting [5]) amounted to 90%; in assay [1] (setting [6]) it was 90%; in assay [2] (setting [7]), 80%; in assay [2] (setting [8]), 70%; in assay [3] (setting [9]) it was 90%; in assay [3] (setting [10]) it was 70%. Further, the pest or weed control at 250 g/ha in assay [4] (setting [11]) and in assay [4] (setting [12]) was 80% each time.
Regarding `Cc1cc(-n2cc(Cl)cn2)cc(C)c1C1C(=O)CC(CC(=O)NC2CC2)C1=O` (centres unmarked) [Compound A75], the pest or weed control at 250 g/ha worked out at 100% in assay [1] (setting [13]); 100% in assay [1] (setting [14]); 100% in assay [2] (setting [15]); 100% in assay [2] (setting [16]); 100% in assay [3] (setting [17]); 90% in assay [3] (setting [18]). The pest or weed control at 250 g/ha in assay [4] (setting [19]) and in assay [4] (setting [20]) was 90% each time.
Take `Cc1cc(-n2cc(Cl)cn2)cc(C)c1C1C(=O)CC(CC(=O)NCC(C)C)C1=O` (centres unmarked) [Compound A72]: the pest or weed control at 250 g/ha in assay [1] (setting [13]) came out at 90%; in assay [1] (setting [14]), 90%; in assay [2] (setting [15]) it was 90%; in assay [2] (setting [16]), 100%; in assay [3] (setting [17]), 90%; in assay [3] (setting [18]), 90%. Moreover, the pest or weed control at 250 g/ha in assay [4] (setting [19]) came out at 80%; in assay [4] (setting [20]) it was 90%.
`Cc1cc(C)c(C2C(=O)CC(CC(=O)NCc3ccc(C)o3)C2=O)c(C)c1` (centres unmarked) [Compound A97]: the pest or weed control at 250 g/ha was found to be 70% in assay [1] (setting [13]); 30% in assay [1] (setting [14]); 0% in assay [2] (setting [15]); 0% in assay [2] (setting [16]); 20% in assay [3] (setting [17]); 0% in assay [3] (setting [18]). Moreover, the pest or weed control at 250 g/ha came to 70% in assay [4] (setting [19]) and 90% in assay [4] (setting [20]).
As for `Cc1ccc(/C=C/C2(NC(=O)CC3CC(=O)C(c4c(C)cc(C)cc4C)C3=O)CC2)cc1` (centres unmarked) [Compound A101], the pest or weed control at 250 g/ha in assay [1] (setting [13]) was determined as 10%; in assay [2] (setting [15]), 20%; in assay [3] (setting [17]), 0%; in assay [4] (setting [19]), 40%.
In the case of `Cc1cc(C)c(C2C(=O)CC(CC(=O)NC3(C(F)(F)F)CC3)C2=O)c(C)c1` (centres unmarked) [Compound B138], the pest or weed control at 250 g/ha in assay [1] (setting [5]) came out at 90%; in assay [1] (setting [6]), 80%; in assay [2] (setting [7]), 80%; in assay [2] (setting [8]), 90%; in assay [3] (setting [9]) it was 70%; in assay [3] (setting [10]) it was 0%. For the same compound, the pest or weed control at 250 g/ha in assay [4] (setting [11]) came out at 80%; in assay [4] (setting [12]) it was 70%.
Regarding `Cc1cc(C)c(C2C(=O)CC(CC(=O)NCC3CC3(F)F)C2=O)c(C)c1` (centres unmarked) [Compound B158], the pest or weed control at 250 g/ha in assay [1] (setting [5]) is 90%; in assay [1] (setting [6]), 90%; in assay [2] (setting [7]), 80%; in assay [2] (setting [8]) it was 100%; in assay [3] (setting [9]), 80%; in assay [3] (setting [10]) it was 90%. The pest or weed control at 250 g/ha was 90% in assay [4] (setting [11]) and 100% in assay [4] (setting [12]).
`C=CC(C)NC(=O)CC1CC(=O)C(c2c(C)cc(-c3ccc(F)cn3)cc2C)C1=O` (centres unmarked) [Compound B390]: the pest or weed control at 250 g/ha in assay [1] (setting [21]) amounted to 100%; in assay [1] (setting [22]), 100%; in assay [2] (setting [23]), 90%; in assay [2] (setting [24]), 100%; in assay [3] (setting [25]), 100%; in assay [3] (setting [26]), 100%. The pest or weed control at 250 g/ha in assay [4] (setting [27]) was 90%; in assay [4] (setting [28]), 100%.
In the case of `Cc1cc(-c2ncc(Cl)cn2)cc(C)c1C1=C(OC(=O)N2CCCC2)C(CC(=O)NC(C)(C)C)CC1=O` (centres unmarked) [Compound P7], the pest or weed control at 250 g/ha in assay [1] (setting [21]) was 70%; in assay [1] (setting [22]), 0%; in assay [2] (setting [23]), 80%; in assay [2] (setting [24]), 50%; in assay [3] (setting [25]), 60%; in assay [3] (setting [26]) it was 10%. Besides, the pest or weed control at 250 g/ha in assay [4] (setting [27]) was determined as 40%; in assay [4] (setting [28]), 30%.
For `COCC(C)NC(=O)CC1CC(=O)C(c2c(C)cc(-c3ncc(Cl)cc3F)cc2C)C1=O` (centres unmarked) [Compound B121], the pest or weed control at 250 g/ha in assay [1] (setting [5]) stood at 100%; in assay [1] (setting [6]), 100%; in assay [2] (setting [7]) it was 100%; in assay [2] (setting [8]) it was 100%; in assay [3] (setting [9]), 100%; in assay [3] (setting [10]), 90%. Moreover, the pest or weed control at 250 g/ha in assay [4] (setting [11]) and in assay [4] (setting [12]) was 100% throughout.
